Reference: US12390441B2, “Immunomodulating o-het/aryl azalides” (Zoetis Services LLC, priority 2020, dated 2025)
Marks after values point to notes of the source that are not given here.

Key:
TNF-α = experiment: Whole blood assay, LPS stimulation, MSD cytokine detection; assay type: cell-based; settings: fresh whole bovine blood
IL-1β = experiment: as above; assay type: cell-based, bovine; settings: fresh whole bovine blood, LPS stimulation; drug concentration giving overstimulation (OS) of IL-1β
[1] = test system: BRD pathogens, M. haemolytica and P. multocida; experiment: In-vitro MIC model, BRD pathogen screening panel; assay type: cell-based, Mannheimia haemolytica; Pasteurella multocida; settings: at least one BRD strain
IL-6 = experiment: Whole blood assay, LPS stimulation, MSD cytokine detection; assay type: cell-based; settings: fresh whole bovine blood

Compound | IC50 (TNF-α) [µM] | IC50 (IL-6) [µM] | IL-1ß OS of LPS (IL-1β) [µM] | MIC flag at the example number (Table C) [1] | MIC flag at the example number (Table E) [1] | MIC flag at the example number (Table A) [1]
CC[C@H]1OC(=O)[C@H](C)[C@@H](O)[C@H](C)[C@@H](O[C@@H]2O[C@H](C)C[C@H](N(C)C(=O)N(C)c3ccccc3)[C@H]2Oc2ccc(OC)cc2)[C@](C)(O)C[C@@H](C)CN(C)[C@H](C)[C@@H](O)[C@]1(C)O [Example C-13] | 44 |  | 40 | C-13* (MIC ≤ 64 μg/mL for at least one BRD strain) |  | 
CCCNC[C@]1(O)[C@H](C)O[C@@H](O[C@H]2[C@H](C)[C@@H](O[C@@H]3O[C@H](C)C[C@H](NC)[C@H]3Oc3ccc(OC)nc3OC)[C@](C)(O)C[C@@H](C)CN[C@H](C)[C@@H](O)[C@](C)(O)[C@@H](CC)OC(=O)[C@@H]2C)C[C@@]1(C)OC [Example E-77] | 22 | 66 | 18 |  | E-77* (MIC ≤ 64 μg/mL for at least one BRD strain) | 
CC[C@H]1OC(=O)[C@H](C)[C@@H](O[C@H]2C[C@@](C)(OC)[C@](O)(CNc3ccccc3)[C@H](C)O2)[C@H](C)[C@@H](O[C@@H]2O[C@H](C)C[C@H](N(C)C)[C@H]2Oc2ccccc2)[C@](C)(O)C[C@@H](C)CN[C@H](C)[C@@H](O)[C@]1(C)O [Example E-67] | 5 | 8 | 6 |  | E-67* (MIC ≤ 64 μg/mL for at least one BRD strain) | 
CCCNC[C@]1(O)[C@H](C)O[C@@H](O[C@H]2[C@H](C)[C@@H](O[C@@H]3O[C@H](C)C[C@H](NC)[C@H]3Oc3ccc4ccncc4c3)[C@](C)(O)C[C@@H](C)CN[C@H](C)[C@@H](O)[C@](C)(O)[C@@H](CC)OC(=O)[C@@H]2C)C[C@@]1(C)OC [Example E-56] | 11 | 120 | 100 |  | E-56* (MIC ≤ 64 μg/mL for at least one BRD strain) | 
CCCNC[C@]1(O)[C@H](C)O[C@@H](O[C@H]2[C@H](C)[C@@H](O[C@@H]3O[C@H](C)C[C@H](NC)[C@H]3Oc3cc(F)c(F)c(F)c3)[C@](C)(O)C[C@@H](C)CN[C@H](C)[C@@H](O)[C@](C)(O)[C@@H](CC)OC(=O)[C@@H]2C)C[C@@]1(C)OC [Example E-90] | 12 | 8 | 6 |  | E-90* (MIC ≤ 64 μg/mL for at least one BRD strain) | 
CCCNC[C@]1(O)[C@H](C)O[C@@H](O[C@H]2[C@H](C)[C@@H](O[C@@H]3O[C@H](C)C[C@H](N(C)C)[C@H]3Oc3ccccc3Cl)[C@](C)(O)C[C@@H](C)CN[C@H](C)[C@@H](O)[C@](C)(O)[C@@H](CC)OC(=O)[C@@H]2C)C[C@@]1(C)OC [Example E-83] |  |  |  |  | E-83* (MIC ≤ 64 μg/mL for at least one BRD strain) | 
CCCNC[C@]1(O)[C@H](C)O[C@@H](O[C@H]2[C@H](C)[C@@H](O[C@@H]3O[C@H](C)C[C@H](NC)[C@H]3Oc3cccc(OC(F)(F)F)c3)[C@](C)(O)C[C@@H](C)CN[C@H](C)[C@@H](O)[C@](C)(O)[C@@H](CC)OC(=O)[C@@H]2C)C[C@@]1(C)OC [Example E-54] |  |  |  |  | E-54* (MIC ≤ 64 μg/mL for at least one BRD strain) | 
CC[C@H]1OC(=O)[C@H](C)[C@@H](O)[C@H](C)[C@@H](O[C@@H]2O[C@H](C)C[C@H](N(C)C(=O)N(C)c3ccccc3)[C@H]2Oc2ccc3ncsc3c2)[C@](C)(O)C[C@@H](C)CN(C)[C@H](C)[C@@H](O)[C@]1(C)O [Example C-11] |  |  |  | C-11* (MIC ≤ 64 μg/mL for at least one BRD strain) |  | 
CC[C@H]1OC(=O)[C@H](C)[C@@H](O[C@H]2C[C@@](C)(OC)[C@@H](O)[C@H](C)O2)[C@H](C)[C@@H](O[C@@H]2O[C@H](C)C[C@H](N(C)C)[C@H]2Oc2cccc(OC)c2)[C@](C)(O)C[C@@H](C)CN(C)[C@H](C)[C@@H](O)[C@]1(C)O [Example A-20] |  |  |  |  |  | A-20* (MIC ≤ 64 μg/mL for at least one BRD strain)
CC[C@H]1OC(=O)[C@H](C)[C@@H](O[C@H]2C[C@@](C)(OC)[C@@H](O)[C@H](C)O2)[C@H](C)[C@@H](O[C@@H]2O[C@H](C)C[C@H](N(C)C)[C@H]2Oc2ccc(Cl)nc2)[C@](C)(O)C[C@@H](C)CN(C)[C@H](C)[C@@H](O)[C@]1(C)O [Example A-5] |  |  |  |  |  | A-5* (MIC ≤ 64 μg/mL for at least one BRD strain)
CCCNC[C@]1(O)[C@H](C)O[C@@H](O[C@H]2[C@H](C)[C@@H](O[C@@H]3O[C@H](C)C[C@H](NC)[C@H]3Oc3cc(F)c(OC)c(F)c3)[C@](C)(O)C[C@@H](C)CN[C@H](C)[C@@H](O)[C@](C)(O)[C@@H](CC)OC(=O)[C@@H]2C)C[C@@]1(C)OC [Example E-9] | 18 | 30 | 40 |  | E-9* (MIC ≤ 64 μg/mL for at least one BRD strain) | 

Now from value to compound, other results behind:

IC50 (TNF-α) [µM] | IC50 (IL-6) [µM] | Compound | IL-1ß OS of LPS (IL-1β) [µM] | MIC flag at the example number (Table C) [1] | MIC flag at the example number (Table E) [1] | MIC flag at the example number (Table A) [1]
15 | 40 | CCCNC[C@]1(O)[C@H](C)O[C@@H](O[C@H]2[C@H](C)[C@@H](O[C@@H]3O[C@H](C)C[C@H](NC)[C@H]3Oc3cccc(F)c3)[C@](C)(O)C[C@@H](C)CN[C@H](C)[C@@H](O)[C@](C)(O)[C@@H](CC)OC(=O)[C@@H]2C)C[C@@]1(C)OC [Example E-7] | 40 |  | E-7* (MIC ≤ 64 μg/mL for at least one BRD strain) | 
5 | 19 | CCCNC[C@]1(O)[C@H](C)O[C@@H](O[C@H]2[C@H](C)[C@@H](O[C@@H]3O[C@H](C)C[C@H](NC)[C@H]3Oc3ccccc3C)[C@](C)(O)C[C@@H](C)CN[C@H](C)[C@@H](O)[C@](C)(O)[C@@H](CC)OC(=O)[C@@H]2C)C[C@@]1(C)OC [Example E-61] | 16 |  | E-61* (MIC ≤ 64 μg/mL for at least one BRD strain) | 
5 | 18 | CCCNC[C@]1(O)[C@H](C)O[C@@H](O[C@H]2[C@H](C)[C@@H](O[C@@H]3O[C@H](C)C[C@H](N(C)C)[C@H]3Oc3cccc(OC)c3)[C@](C)(O)C[C@@H](C)CN[C@H](C)[C@@H](O)[C@](C)(O)[C@@H](CC)OC(=O)[C@@H]2C)C[C@@]1(C)OC [Example E-73] | 16 |  | E-73* (MIC ≤ 64 μg/mL for at least one BRD strain) | 
25 | 40 | CCCNC[C@]1(O)[C@H](C)O[C@@H](O[C@H]2[C@H](C)[C@@H](O[C@@H]3O[C@H](C)C[C@H](NC)[C@H]3Oc3ccc(OC)c(OC(C)C)c3)[C@](C)(O)C[C@@H](C)CN[C@H](C)[C@@H](O)[C@](C)(O)[C@@H](CC)OC(=O)[C@@H]2C)C[C@@]1(C)OC [Example E-20] | 100 |  | E-20* (MIC ≤ 64 μg/mL for at least one BRD strain) | 
3 | 10 | CCCNC[C@]1(O)[C@H](C)O[C@@H](O[C@H]2[C@H](C)[C@@H](O[C@@H]3O[C@H](C)C[C@H](NC)[C@H]3Oc3ccc(F)c(F)c3)[C@](C)(O)C[C@@H](C)CN[C@H](C)[C@@H](O)[C@](C)(O)[C@@H](CC)OC(=O)[C@@H]2C)C[C@@]1(C)OC [Example E-36] | 16 |  | E-36* (MIC ≤ 64 μg/mL for at least one BRD strain) | 
